Molecules are shown by their SMILES.

The conditions of the first data set: pH 2.0.
As usually defined, the logD is the decadic logarithm of the distribution of all forms, ionised or not, between an organic phase and buffer at a given pH. The compound `COc1ccc(N(CC(=O)N[C@@H]2CCS(=O)(=O)C2)S(=O)(=O)c2ccc(Cl)c(Cl)c2)cc1` came in with a logD of 3.32. On the same count and under the same terms, for `CC[C@@H](OC(=O)CNC(=O)c1ccc(N2C(=O)c3ccccc3C2=O)cc1)C(=O)c1ccccc1` the value was 4.15. The same measure, in the same setting: the result for `COc1ccccc1NC(=S)N[C@H](NC(=O)c1ccccc1C)C(Cl)(Cl)Cl` reads 3.95; that for `O=C(/C=C/c1ccco1)Nc1ccccc1NC(=O)/C=C/c1ccco1`, 3.79. Same read-out and setting: for `O=C(COC(=O)/C=C/c1ccc(F)cc1)Nc1cc(C(F)(F)F)ccc1N1CCOCC1` the value was 5.08; for `CCOC(=O)/C=c1/s/c(=C/c2c(F)cccc2F)c(=O)n1CC(=O)N(C)C`, 3.17; for `C[C@H](NC1=NS(=O)(=O)c2ccccc21)C(=O)OCC(=O)/C=C1/N(C)c2ccccc2C1(C)C`, 4.21. With `O=C(/C=C/c1cccs1)Nc1ccc(I)cc1`, the logD was 4.67.

The same data set, now with this note: pH 5.0.
In turn, `Cc1onc(-c2c(F)cccc2Cl)c1C(=O)OCC(=O)N1[C@H](C)CCC[C@H]1C` returned a logD of 4.38. Still for that read-out and setting: for `CC(C)(C)C(=O)Nc1ccc(NC(=O)C(C)(C)C)cc1` the value was 2.79. Same read-out and setting: the result for `Cc1noc(C)c1C(=O)O[C@@H](C)C(=O)Nc1ccc2c(c1)OCCO2` reads 2.78; that for `Cc1ccc([C@@H](O)P(=O)(OCC(C)C)OCC(C)C)cc1`, 4.44. Still for that read-out and setting: for `O=C(NC[C@@H]1CCCO1)c1sc2ccccc2c1Cl` the value was 3.56. `C[C@@H](Oc1ccc(F)cc1F)C(=O)c1cn(-c2ccc(OC(F)(F)F)cc2)nn1` displayed a pH-dependent lipophilicity (logD) of 5.83. `C[C@@H](NC(=O)C1CCN(C(=O)c2ccc(F)cc2)CC1)c1ccccc1` displayed a logD of 3.48. Consider `OCC#CC(O)(c1ccc(F)cc1)c1ccc(F)cc1`, for which the logD was 3.61.

Turning to `COc1cc2c(cc1OC)[C@H](COc1ccc3c(C)cc(=O)oc3c1)N(C(=O)C1CCCCC1)CC2`, the logD stood at 5.07. Still for that read-out and setting: the result for `CC1=NN(C(=O)c2ccccc2Cl)[C@](O)(c2ccc(Cl)cc2)C1` reads 3.73; that for `CC(=O)C12c3ccccc3C(c3ccccc31)[C@H]1C(=O)N(c3ccc(C)c([N+](=O)[O-])c3)C(=O)[C@@H]12`, 4.74. `O=C(NC[C@H]1CCCO1)c1cc2nc(C3CC3)cc(C(F)(F)F)n2n1` gave a logD of 3.33. `CCOC(=O)c1c(C)nc(SC[C@@]2(O)CCCC[C@@H]2SC)c(C#N)c1-c1ccccc1` returned a logD of 6.01. In turn, `C[C@@H](OC(=O)c1cccc(C(F)(F)F)c1)C(N)=O` returned a logD of 2.75. The same measure, in the same setting: the result for `O=C(OCCN1C(=O)c2ccccc2C1=O)[C@@H]1C[C@H](O)CN1S(=O)(=O)c1ccc(Cl)cc1` reads 3.65.

In the case of `CC(=O)Nc1ccc(/N=C/c2c(O)oc3ccccc3c2=O)cc1`, the logD came out at 3.64. The logD values of the last two compounds are within 0.2 log units of each other. The same measure, in the same setting: the result for `CCOc1cc([C@H]2[C@@H]3CN(C(=O)OC(C)(C)C)CC=C3C(C#N)=C(N)C2(C#N)C#N)ccc1OC(C)C` reads 5.83. Same read-out and setting: the result for `CC[C@H](C(=O)N1CCCN(C(=O)[C@@H](CC)c2ccccc2)CC1)c1ccccc1` reads 4.93; that for `C[C@@H]1CCC2[C@]3(C)COC(C)(C)O[C@H]3CC[C@]2(C)[C@@]12CCC1(COC(=O)C1)O2` (stereo partly specified), 4.24; that for `CCCC(=O)NC[C@@H](C)NC(=O)CCC`, 1.43. Still for that read-out and setting: the result for `COc1ccc([C@@H]2CCCC[C@H]2O)cc1` reads 2.85; that for `O=C1[C@H]2[C@@H](C(=O)N1c1ccccc1)C1(O[C@H]2c2ccccc2)C(=O)c2ccccc2C1=O`, 4; that for `CCCC[C@H](CC)Cn1c(SCC(=O)Nc2ccc(OC)cc2)nc2c1c(=O)n(C)c(=O)n2C`, 5.51. As to `CN(C)C(=O)[C@H]1OC(C)(C)O[C@@H]1C(=O)N(C)C`, the logD came out at 1.49. As for `COc1cc([C@H]2C(C(=O)c3ccccc3)=C(N)N(c3ccccc3C(F)(F)F)C3=C2C(=O)CCC3)cc(OC)c1OC`, the logD was 4.51. Still for that read-out and setting: the result for `CCOc1ccc(C[C@H]2c3cc(OCC)c(OCC)cc3CCN2C(=O)c2scnc2C)cc1OCC` reads 4.98; that for `O=C(NCc1ccccc1)/C(=C/c1ccc(Cl)cc1)NC(=O)c1ccccc1`, 4.41; that for `COc1cc(C#N)ccc1OC(=O)/C=C/c1cccc(F)c1`, 4.46. On the same count and under the same terms, the result for `Cc1ccc(C(=O)COc2cccc(N3C(=O)[C@@H]4[C@H]5CC[C@H](C5)[C@@H]4C3=O)c2)cc1C` reads 4.71.

For `CCOC(=O)C1=C(C)NC(=S)N[C@@H]1c1ccc(OCc2ccc(Cl)cc2)c(OCC)c1`, the log distribution coefficient (logD) was 5.31. Still for that read-out and setting: the result for `COc1ccc([C@@H]2[C@@H]3CCCC=C3C(C#N)=C(N)C2(C#N)C#N)cc1COCC(F)(F)F` reads 5.5; that for `O=C1CC[C@H]2CCCC[C@@]2(O)O1`, 1.16; that for `Cc1ccc(-c2nc3n(n2)C(=O)C[C@H](c2cccc([N+](=O)[O-])c2)S3)cc1`, 4.49.

For `CSc1ccc(S(=O)(=O)N(CC(=O)NC[C@@H]2CCCO2)c2ccc(C)cc2)cc1`, the logD stood at 4.3. The same measure, in the same setting: the result for `C[C@@H](Sc1nnnn1-c1ccc(Cl)cc1)C(=O)NCC(=O)Nc1ccc(F)c(F)c1F` reads 4.52. Compound `O=C(Cc1coc2cc3c(cc12)CCC3)O[C@H]1CCCCC1=O` came in with a logD of 4.43. Same read-out and setting: the result for `O=C1Nc2cc(C(=O)NC3CC3)ccc2S/C1=C\c1ccccc1` reads 4.32.

`CC(=O)c1c(C)[nH]c(C(=O)COC(=O)c2ccccc2NC(=O)c2ccco2)c1C`: the logD was found to be 4.73. On the same count and under the same terms, for `CC1(C)CC(=O)C2=C(C1)N(c1c(F)cccc1F)C(N)=C(C#N)[C@@H]2c1cccc(Cl)c1` the value was 5.04; for `C[C@@H]1CCCCN1C(=O)CCCCC(=O)N1CCCC[C@H]1C`, 3.42. On the same count and under the same terms, the result for `COc1ccc([C@H]2C(C#N)=C(N)N(c3ccc(Cl)cc3)C3=C2C(=O)CC(C)(C)C3)cc1OC` reads 4.34; that for `CCOC(=O)c1[nH]c(C)c(C(=O)OCC(=O)N(C)[C@@H]2CCS(=O)(=O)C2)c1C`, 3.35.

Still in this data set, the particulars now being: pH 6.5.
In the case of `O=P(Oc1ccccc1)(Oc1ccccc1)O[C@@H]1C=CS(=O)(=O)C1`, the logD came to 2.48.

As to `C[C@H]1CCCC[C@@H]1NC(=O)COc1ncnc2ccccc12`, the logD came to 3.11.

`O=C(CN1C(=O)/C(=C2\SC(=S)N(Cc3ccco3)C2=O)c2ccccc21)Nc1ccc(F)cc1` came in with a logD of 6.36.

With `NC(=O)C(C(=O)/C=C/c1ccc(Cl)cc1)=C1SCS1`, the logD turned out to be 3.64. The same measure, in the same setting: for `CC/C(=N\N=C1/S[C@@H](C)C(=O)N1Cc1ccco1)c1ccccc1` the value was 5.07.

Still in this data set, the particulars now being: pH 7.0.
`CC(=O)Nc1ccc([C@H]2C(C#N)=C(N)Oc3c2c(C)nn3-c2cccc(Cl)c2)cc1` came in with a logD of 4.93. The same measure, in the same setting: for `Cc1ccc(N[C@H]2O[C@@H](CO)[C@H](O)[C@@H](O)[C@H]2O)cc1Br` the value was 2.28.

Staying with this data set, now noted: pH 7.3.
`O=C1C[C@@H](n2nc(-c3ccccc3)n(-c3ccccc3)c2=S)[C@@H]2CO[C@H]1O2` came in with a logD of 3.65.

Take `O=C(Nc1ccccc1)[C@H]1CC(=O)N(Cc2ccccc2)/C(=N/c2ccc(F)cc2)S1`: the log distribution coefficient (logD) is 6. Still for that read-out and setting: for `CCOC(=O)C1=C(N)n2c(s/c(=C\c3ccc(C(=O)OC)cc3)c2=O)=C(C(=O)OC)C1c1ccc(C(=O)OC)cc1` (stereo unspecified) the value was 6.95.

For `COc1ccc([C@H]2C[C@@H](c3ccc(-c4ccccc4)cc3)Nc3ncnn32)cc1`, the logD came to 5.42. Still for that read-out and setting: for `CC(C)[C@@H](Sc1nnc(C(F)(F)F)n1C)C(=O)NC(N)=O` the value was 2.12; for `CCOc1ccc(Br)cc1[C@H]1C2=C(CC(C)(C)CC2=O)Nc2ncnn21`, 3.85; for `CC[C@@H](SC1=Nc2ccccc2C2=N[C@@H](CC(C)C)C(=O)N12)C(=O)Nc1ccc2c(c1)OCO2`, 4.85.

`CCOP(=O)(Cc1ccc(CP(=O)(OCC)OCC)o1)OCC` registered a logD of 3.25. As for `CSc1ncc2c(n1)-c1c(SC)sc(C(=O)Nc3ccc(Cl)cc3)c1CC2`, the logD stood at 5.87.

With `COc1ccc([C@H]2C[C@H](C(F)(F)F)n3ncc(C(=O)N(C)Cc4cnn(C)c4C)c3N2)cc1OC`, the logD was 4.25.

Still in this data set, the particulars now being: pH 8.0.
In turn, `COc1ccc([C@@H](C)n2c(C)c3c(C)nnc(C)c3c2C)cc1` registered a logD of 3.43. On the same count and under the same terms, the result for `OC[C@H]1CCCN(c2ncnc3scc(-c4ccccc4)c23)C1` reads 3.9; that for `COc1ccc([C@@H]2Nc3ccccc3C(=O)N2c2ccccc2)cc1COc1ccc(NC(C)=O)cc1`, 4.65.

The data set is the same for the next values; noted with them: pH 10.0.
The compound `COc1cc([C@@H]2Nc3cc(C)c(C)cc3NC3=C2C(=O)CC(C)(C)C3)cc(OC)c1OC(C)=O` came in with a logD of 4.21. The same measure, in the same setting: the result for `CCOCCOC(=O)C1=C(C)NC2=C(C(=O)CCC2)[C@@H]1c1ccc(C)cc1` reads 3.89; that for `N#CC1=C(N)OC2=C(C(=O)C[C@H](c3ccccc3)C2)[C@H]1c1ccccc1F`, 3.07; that for `CSc1ccc([C@@H]2[C@@H]3C(=O)N(c4cccc(C(F)(F)F)c4)C(=O)[C@H]3ON2c2ccccc2)cc1`, 5.98. Still for that read-out and setting: for `C(=N\n1cnnc1)/c1ccc(-n2nc(-c3ccccc3)cc2-c2ccccc2)cc1` the value was 5.58; for `C[C@H]1C[C@H](C)CN(C(=O)CSc2nnc(-c3ccccc3)n2C)C1`, 3.68.

Still in this data set, the particulars now being: pH 10.5.
The compound `CN1C(=O)N(C)C2(c3ccccc3)Nn3c(s/c(=C\c4ccc(Br)cc4)c3=O)=NC12c1ccccc1` (stereo unspecified) yielded a logD of 5.72. The same measure, in the same setting: for `CC(=O)C1=C(C)NC(SCC(=O)Nc2ccccc2)=C(C#N)[C@H]1c1ccccc1Cl` the value was 4.97; for `CCOC(=O)C1=C(C)N=c2s/c(=C\c3ccc(OC(C)=O)cc3)c(=O)n2C1c1cccs1` (stereo unspecified), 4.77; for `COC(=O)CC1=C(C(=O)OC)[C@]2(C(=O)Nc3ccccc32)C(C(=O)OCc2ccccc2)=C(N)O1`, 4.25. Same read-out and setting: for `CN(C)/C=C/C(=O)c1ccc(C#Cc2ccccc2)cc1` the value was 4.69; for `CC(C)=CCCC1=NN(C=O)[C@@](C)(CCC=C(C)C)C1`, 5.02; for `O=C(c1ccccc1)N1CCCC[C@@H](Sc2nnc3ccccn23)C1=O`, 3.14. The same measure, in the same setting: for `Cn1c(N)c(C(=O)CSc2nc3sc4c(c3c(=O)n2Cc2ccccc2)CCC4)c(=O)n(C)c1=O` the value was 5.21; for `Clc1ccc(/C=N/NC2=Cn3c(nc4ccccc43)NN2)cc1`, 4.81. The compound `CCc1cc2c3c(c1)[C@]1(C(=O)N3C(C)(C)C=C2C)C(C#N)=C(N)OC2=C1C(=O)CC(C)(C)C2` yielded a logD of 5.39.
